# Reference: paper doi:10.1101/2024.08.19.608619, “Discovery of potent SARS-CoV-2 nsp3 macrodomain inhibitors uncovers lack of translation to cellular antiviral response” (bioRxiv, 2024)
# “And” between values parts separate entries of the source, which are not always exact repeats. Equal values may be shown once. Read-outs that look alike come from different tables or passages of the source.
# What was measured:
# [1] = Hepatic microsomal stability, MLM; assay type: in vitro ADME
# SARS-CoV-2 nsp3-mac1 = SARS-CoV-2 nsp3-mac1 (Severe acute respiratory syndrome coronavirus 2, UniProt P0DTD1); assay: biochemical
# LogD = conditions: pH 7.4
# [2] = system: SARS-CoV-2, isolate USA-WA1/2020; assay: microbe, parasite or virus in culture; assay type: cell-based; conditions: for perc_max_measured: maximum measured response of dose series; for perc_min_measured: minimum measured response of dose series
# HeLa-ACE2 cells = conditions: protocol HeLa-ACE2 cytotoxicity; for perc_max_measured: highest measured response of the dose series; for perc_min_measured: lowest measured response of the dose series
# SARS-CoV-2 = assay: Antiviral effect in iPSC-derived pneumocyte system; assay type: cell-based; conditions: iPSC pneumocytes SARS-CoV-2 antiviral effect; for perc_max_measured: maximum measured response of dose series; for perc_min_measured: minimum measured response of dose series
# in vitro [3] = conditions: human
# iPSC pneumocytes = iPSC pneumocytes cytotoxicity; assay type: cell-based; conditions: for perc_max_measured: highest measured response of the dose series; for perc_min_measured: lowest measured response of the dose series
# Description: (§1) Supplement media-1.zip/Cytotoxicity.csv, table | column: cc10; cc50; perc_min_measured; perc_max_measured
# [4] = Hepatic microsomal stability, HLM; assay type: in vitro ADME, human; conditions: In vitro human liver microsomal stability; for perc_remaining_no_cofactor: no cofactor; for microsomal CLint: liver microsomes
# MDR1 = assay: Permeability Papp (AB) MDR1/MDCKII; conditions: dog, MDCK-MDR1, papp_a_to_b_mean, In vitro MDR1-MDCKII permeability, A to B
# [5] = Permeability Papp (AB) MDR1/MDCKII; conditions: for papp_a_to_b_mean: A to B
# [6] = In vitro kinetic solubility
# [7] = iPSC pneumocytes cytotoxicity; assay type: cell-based; conditions: protocol iPSC pneumocytes cytotoxicity
# Description: as §1
# in vitro [8] = assay: in vitro; set-up: Cytotoxicity in iPSC-derived pneumocytes, CC50; conditions: human, ipsc-derived pneumocytes, read-out: 50.0
# in vitro [9] = conditions: human, hela-ace2 cells, 50.0
# [10] = In vitro mouse liver microsomal stability
# [11] = In vitro mouse liver microsomal stability; no cofactor
# [12] = IC50, nsp3-mac1 activity, Figures 1-3 and text
# [13] = HeLa-ACE2 SARS-CoV-2 antiviral effect without P-gp inhibitor
# [14] = Severe acute respiratory syndrome coronavirus 2, HeLa-ACE2
# [15] = Severe acute respiratory syndrome coronavirus 2
# [16] = protocol iPSC pneumocytes cytotoxicity
# [17] = In vitro MDR1-MDCKII permeability, recovery A to B, mean
# [18] = Severe acute respiratory syndrome coronavirus 2, HeLa-ACE2 SARS-CoV-2 antiviral effect without P-gp inhibitor, read-out: ec50
# [19] = Severe acute respiratory syndrome coronavirus 2, HeLa-ACE2 SARS-CoV-2 antiviral effect without P-gp inhibitor, read-out: ec90
# [20] = In vitro mouse liver microsomal stability, no cofactor
# [21] = HeLa-ACE2 SARS-CoV-2 antiviral effect without P-gp inhibitor, read-out: ec50
# [22] = HeLa-ACE2 SARS-CoV-2 antiviral effect without P-gp inhibitor, read-out: ec90
# [23] = In vitro MDR1-MDCKII permeability, mean
# [24] = In vitro MDR1-MDCKII permeability, no inhibitor
# [25] = In vitro MDR1-MDCKII permeability, recovery A to B, no inhibitor
# [26] = In vitro kinetic solubility, ph 7.4
structure (smiles),measurement,setting,value
CCNC(=O)c1cc2c(NC(c3ccc4c(c3)OCCO4)C(C)C)ncnc2[nH]1 (stereo not drawn) [ASAP-0008444],perc_remaining,[1]; [10],24.0%
same,t_half,[1]; [10],19.0 min
same,perc_remaining_no_cofactor,[1]; [11],109.0%
same,microsomal CLint,[1]; liver microsomes; In vitro mouse liver microsomal stability,88 µL/min/mg
same,IC50,SARS-CoV-2 nsp3-mac1; [12],0.24 µM
same,increase in potency relative to the starting point,SARS-CoV-2 nsp3-mac1; relative to ASAP-000450,10 x
same,logd,LogD,3
same,perc_max_measured,[2]; [13],122.873% and 94.861%
same,perc_min_measured,[2]; [13],70.184% and 54.623%
same,EC50,[2]; [14],> 20 µM
same,EC90,[2]; [14],> 20 µM
same,perc_max_measured,HeLa-ACE2 cells,101.322% and 84.588%
same,perc_min_measured,HeLa-ACE2 cells,64.265% and 70.325%
same,EC50,SARS-CoV-2; [15],41.1 µM
same,EC90,SARS-CoV-2; [15],> 50 µM
same,perc_max_measured,SARS-CoV-2,136.848%
same,perc_min_measured,SARS-CoV-2,15.577%
same,CC50,in vitro [3],> 20 µM
same,perc_max_measured,iPSC pneumocytes; [16],91.985%
same,perc_min_measured,iPSC pneumocytes; [16],70.899%
same,perc_remaining,[4],21.0%
same,t_half,[4],19.7 min
same,perc_remaining_no_cofactor,[4],103.0%
same,microsomal CLint,[4],85 µL/min/mg
same,Papp A→B,MDR1; mean,2.41 ×10⁻⁶ cm/s
same,perc_recovery_a_to_b_mean,[5]; [17],85.8%
same,solubility,[6]; pH 7.4,72 µM
CC(C)C(Nc1ncnc2[nH]ccc12)c1ccc2c(c1)NC(=O)CO2 (stereo not drawn) [ASAP-0008302],IC50,SARS-CoV-2 nsp3-mac1; [12],0.71 µM
same,perc_max_measured,[2]; [13],123.573%
same,perc_min_measured,[2]; [13],69.199%
same,EC50,[2]; [18],> 50 µM
same,EC90,[2]; [19],> 50 µM
same,cc10,HeLa-ACE2 cells,> 50.0 µM
same,perc_max_measured,HeLa-ACE2 cells,107.359%
same,perc_min_measured,HeLa-ACE2 cells,95.445%
same,EC50,"SARS-CoV-2; Severe acute respiratory syndrome coronavirus 2, iPSC",> 50 µM
same,EC90,SARS-CoV-2; [15],> 50 µM
same,perc_max_measured,SARS-CoV-2,145.289%
same,perc_min_measured,SARS-CoV-2,92.172%
same,CC50,in vitro [3],> 50 µM
same,cc10,iPSC pneumocytes; [16],> 50.0 µM
same,perc_max_measured,iPSC pneumocytes; [16],98.455%
same,perc_min_measured,iPSC pneumocytes; [16],82.288%
same,CC50,[7],> 50 µM
"CC(C)[C@@H](Nc1ncnc2[nH]c(-c3cnn(C)c3C#N)cc12)c1ccc2c(c1)S(=O)(=O)CCC2 (single isomer, unassigned) [ASAP-0011147]",clint,[1]; [10],709.0 µL/min/mg
same,perc_remaining,[1]; [10],0.0%
same,t_half,[1]; [10],2.4 min
same,perc_remaining_no_cofactor,[1]; [20],106.0%
same,CC50,in vitro [8]; ASAP-0008327-001=ASAP-0011147-001,> 50 µM
same,logd,LogD; In vitro LogD,3.7
same,perc_max_measured,[2]; [13],114.163%
same,perc_min_measured,[2]; [13],4.545%
same,EC50,[2]; [21],3.51 µM
same,EC90,[2]; [22],13.2 µM
same,CC50,HeLa-ACE2 cells,> 20 µM
same,cc10,HeLa-ACE2 cells,> 20.0 µM
same,perc_max_measured,HeLa-ACE2 cells,92.283%
same,perc_min_measured,HeLa-ACE2 cells,75.829%
same,CC50 at 24 h,in vitro [9],> 20 µM
same,EC50,SARS-CoV-2,0.411 µM
same,EC90,SARS-CoV-2,13 µM
same,perc_max_measured,SARS-CoV-2,75.192%
same,perc_min_measured,SARS-CoV-2,0.111%
same,CC50,iPSC pneumocytes,> 50 µM
same,cc10,iPSC pneumocytes,> 50.0 µM
same,perc_max_measured,iPSC pneumocytes,111.987%
same,perc_min_measured,iPSC pneumocytes,95.623%
same,clint,[4],516.0 µL/min/mg
same,perc_remaining,[4],0.0%
same,t_half,[4],3.2 min
same,perc_remaining_no_cofactor,[4],101.0%
same,papp_a_to_b_mean,[5]; [23],1.82 ×10⁻⁶ cm/s
same,papp_a_to_b_mean,[5]; [24],0.087 ×10⁻⁶ cm/s
same,papp_b_to_a_mean,"[5]; In vitro MDR1-MDCKII permeability, B to A, no inhibitor",7.5 ×10⁻⁶ cm/s
same,efflux_ratio,[5]; [24],85.7
same,perc_recovery_a_to_b_mean,[5]; [17],54.6%
same,perc_recovery_a_to_b_mean,[5]; [25],82.5%
same,perc_recovery_b_to_a_mean,"[5]; In vitro MDR1-MDCKII permeability, recovery B to A, no inhibitor",96.5%
same,perc_recovery_a_to_b_inhibitor_mean,"[5]; MDR1-MDCKII, recovery A to B, with inhibitor Verapamil",63.2%
same,perc_recovery_b_to_a_inhibitor_mean,"[5]; MDR1-MDCKII, recovery B to A, with inhibitor Verapamil",72.3%
same,solubility_mean,[6]; [26],26 µM
CC(C)[C@@H](Nc1ncnc2[nH]c(-c3cnn(CC(N)=O)c3)cc12)c1ccc2c(c1)OCCO2 [ASAP-0008288],clint,[1]; [10],41.0 µL/min/mg
same,perc_remaining,[1]; [10],54.0%
same,t_half,[1]; [10],41.1 min
same,perc_remaining_no_cofactor,[1]; [11],87.0%
same,CC50,in vitro [8]; ASAP-0008327-001=ASAP-0008288-001,> 50 µM
same,logd,LogD; In vitro LogD,0.9
same,perc_max_measured,[2]; [13],122.799%
same,perc_min_measured,[2]; [13],73.654%
same,EC50,[2]; [21],> 50 µM
same,EC90,[2]; [22],> 50 µM
same,CC50,HeLa-ACE2 cells,> 50 µM
same,cc10,HeLa-ACE2 cells,> 50.0 µM
same,perc_max_measured,HeLa-ACE2 cells,128.866%
same,perc_min_measured,HeLa-ACE2 cells,114.308%
same,CC50 at 24 h,in vitro [9],> 50 µM
same,EC50,SARS-CoV-2,37.1 µM
same,EC90,SARS-CoV-2,> 50 µM
same,perc_max_measured,SARS-CoV-2,96.462%
same,perc_min_measured,SARS-CoV-2,23.083%
same,CC50,iPSC pneumocytes; [16],> 50 µM
same,cc10,iPSC pneumocytes; [16],> 50.0 µM
same,perc_max_measured,iPSC pneumocytes; [16],102.79%
same,perc_min_measured,iPSC pneumocytes; [16],85.436%
same,clint,[4],99.0 µL/min/mg
same,perc_remaining,[4],20.0%
same,t_half,[4],16.9 min
same,perc_remaining_no_cofactor,[4],103.0%
same,papp_a_to_b_mean,[5]; [23],0.9 ×10⁻⁶ cm/s
same,perc_recovery_a_to_b_mean,[5]; [17],89.0%
same,solubility_mean,[6]; [26],345 µM
CCNC(=O)c1cc2c(NC(c3ccc4c(c3)S(=O)(=O)CCC4)C(C)C)ncnc2[nH]1 (stereo not drawn) [ASAP-0012349],perc_remaining,[1]; [10],43.0%
same,t_half,[1]; [10],30.8 min
same,perc_remaining_no_cofactor,[1]; [20],114.0%
same,microsomal CLint,"[1]; mouse, liver microsomes, In vitro mouse liver microsomal stability",54 µL/min/mg
same,IC50,"SARS-CoV-2 nsp3-mac1; HTRF IC50, Figure 4B, bioactive pure enantiomer",0.031 µM
same,logd,"LogD; pH 7.4, logd, In vitro LogD",2.8
same,perc_max_measured,[2]; [13],108.517%
same,perc_min_measured,[2]; [13],90.612%
same,EC50,[2]; [18],> 20 µM
same,EC90,[2]; [19],> 20 µM
same,cc10,HeLa-ACE2 cells,> 20.0 µM
same,perc_max_measured,HeLa-ACE2 cells,99.328%
same,perc_min_measured,HeLa-ACE2 cells,84.17%
same,CC50,in vitro [3],> 20 µM
same,perc_remaining,[4],0.0%
same,t_half,[4],1.9 min
same,perc_remaining_no_cofactor,[4],102.0%
same,microsomal CLint,[4]; human,892 µL/min/mg
same,Papp A→B,MDR1; no inhibitor,0.532 ×10⁻⁶ cm/s
same,perc_recovery_a_to_b_mean,[5]; [25],66.9%
same,solubility,"[6]; pH 7.4, solubility_mean, In vitro kinetic solubility, ph 7.4",316 µM
